System: Tetranor-PGDM EIA Antiserum
Test: Cross-reactivity testing of the antibody in competitive tetranor-PGDM EIA
Conditions: Specificity of the Tetranor-PGDM EIA Antiserum; Example 3 Step D2c
Protocol: To determine cross-reactivity of an antibody, the standard curve using optimal tracer and Ab dilutions according the kit instructions was set up. Tetranor PGDM was diluted to 10 ng/mL for the first point in the standard curve and diluted 2.5-fold serially 7 times. First standard dilutions (10 μg/mL) of tetranor-PGJM, tetranor-PGEM, tetranor-PGFM, PGA2, PGD2, PGE2, PGF2α, PGJ2, 13,14-dihydro-15-keto PGD2, 13,14-dihydro-15-keto-PGE2, 13,14-dihydro-15-keto-PGF2, were prepared and 7 additional 6-fold serial dilutions were performed. IC50s of all compounds were determined and each percent cross-reactivity (% XR) values of the potentially cross-reactive compounds was determined by dividing the IC50 of tetranor-PGDM by the IC50 of the test compound and multiplying by 100.

Compound | Cross-reactivity (% XR) [%]
O=C(O)CCCCC(=O)CC[C@H]1C(=O)C[C@H](O)[C@@H]1CCC(=O)O [tetranor-PGDM, 9α-hydroxy-11,15-dioxo-13,14-dihydro-2,3,4,5-tetranor-prostan-1,20-dioic acid] | 100
CCCCCC(=O)CC[C@@H]1[C@@H](C/C=C\CCCC(=O)O)[C@@H](O)C[C@H]1O [13,14-dihydro-15-keto Prostaglandin F2α] | <0.01
CCCCC[C@H](O)/C=C/[C@H]1C(=O)C[C@H](O)[C@@H]1C/C=C\CCCC(=O)O [Prostaglandin D2] | <0.01
O=C(O)CCCCC(=O)CC[C@H]1C(=O)C=C[C@@H]1CCC(=O)O [tetranor-PGJM] | 376
O=C(O)CCCCC(=O)CC[C@H]1[C@H](O)CC(=O)[C@@H]1CCC(=O)O [tetranor-PGEM] | 0.3
Prostaglandin F2α | <0.01
CCCCCC(=O)CC[C@H]1C(=O)C[C@H](O)[C@@H]1C/C=C\CCCC(=O)O [13,14-dihydro-15-keto Prostaglandin D2] | <0.01
CCCCC[C@H](O)/C=C/[C@H]1C=CC(=O)[C@@H]1C/C=C\CCCC(=O)O [Prostaglandin A2] | <0.01
CCCCCC(=O)CC[C@H]1[C@H](O)CC(=O)[C@@H]1C/C=C\CCCC(=O)O [13,14-dihydro-15-keto Prostaglandin E2] | <0.01
CCCCC[C@H](O)/C=C/[C@H]1C(=O)C=C[C@@H]1C/C=C\CCCC(=O)O [Prostaglandin J2] | <0.01
O=C(O)CCCCC(=O)CC[C@@H]1[C@@H](CCC(=O)O)[C@@H](O)C[C@H]1O [tetranor-PGFM] | <0.01
CCCCC[C@H](O)/C=C/[C@H]1[C@H](O)CC(=O)[C@@H]1C/C=C\CCCC(=O)O [Prostaglandin E2] | <0.01
